In the supplement of paper PMC10307832:

Columns and labels:
Test in all cases: relative viability (nuclei count vs DMSO), 5 days (fraction); higher = more cells survive
Palbociclib + Vorinostat = compound: CC(=O)c1c(C)c2cnc(Nc3ccc(N4CCNCC4)cn3)nc2n(C2CCCC2)c1=O [Palbociclib] + O=C(CCCCCCC(=O)Nc1ccccc1)NO [Vorinostat] (partner 1 µM)
Procedure, shortened: (§1)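 The day after seeding in 1536-well plates, lung cancer cell lines were treated by pin tool with a single drug, or with a fixed anchor-drug dose together with five library-drug doses (not always all listed) in √10 steps. After 5 days, a combined fix-and-stain solution (final 0.05% Triton X-100, 1% formaldehyde, 1 ug/ml Hoechst) was added. Nuclei counted on 4× images gave relative viability as treated counts over vehicle counts, reported as the median of duplicate plates.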

Palbociclib + Phenformin = compound: CC(=O)c1c(C)c2cnc(Nc3ccc(N4CCNCC4)cn3)nc2n(C2CCCC2)c1=O [Palbociclib] + N=C(N)NC(=N)NCCc1ccccc1 [Phenformin] (partner 250 µM)
Procedure, shortened: as §1

Palbociclib + Luminespib = compound: CC(=O)c1c(C)c2cnc(Nc3ccc(N4CCNCC4)cn3)nc2n(C2CCCC2)c1=O [Palbociclib] + CCNC(=O)c1noc(-c2cc(C(C)C)c(O)cc2O)c1-c1ccc(CN2CCOCC2)cc1 [Luminespib] (partner 0.01 µM)
Procedure, shortened: as §1

Palbociclib + Dasatinib = compound: CC(=O)c1c(C)c2cnc(Nc3ccc(N4CCNCC4)cn3)nc2n(C2CCCC2)c1=O [Palbociclib] + Cc1nc(Nc2ncc(C(=O)Nc3c(C)cccc3Cl)s2)cc(N2CCN(CCO)CC2)n1 [Dasatinib] (partner 0.075 µM)
Procedure, shortened: as §1

Row | Cell Line | relative viability (Palbociclib + Vorinostat; first compound 0.01 µM) | relative viability (Palbociclib + Vorinostat; first compound 0.03162 µM) | relative viability (Palbociclib + Vorinostat; first compound 0.1 µM) | relative viability (Palbociclib + Vorinostat; first compound 0.3162 µM) | relative viability (Palbociclib + Vorinostat; first compound 1 µM) | relative viability (Palbociclib + Phenformin; first compound 0.01 µM) | relative viability (Palbociclib + Phenformin; first compound 0.03162 µM) | relative viability (Palbociclib + Phenformin; first compound 0.1 µM) | relative viability (Palbociclib + Phenformin; first compound 0.3162 µM) | relative viability (Palbociclib + Phenformin; first compound 1 µM) | relative viability (Palbociclib + Luminespib; first compound 0.01 µM) | relative viability (Palbociclib + Luminespib; first compound 0.03162 µM) | relative viability (Palbociclib + Luminespib; first compound 0.1 µM) | relative viability (Palbociclib + Luminespib; first compound 0.3162 µM) | relative viability (Palbociclib + Luminespib; first compound 1 µM) | relative viability (Palbociclib + Dasatinib; first compound 0.01 µM) | relative viability (Palbociclib + Dasatinib; first compound 0.03162 µM) | relative viability (Palbociclib + Dasatinib; first compound 0.1 µM) | relative viability (Palbociclib + Dasatinib; first compound 0.3162 µM) | relative viability (Palbociclib + Dasatinib; first compound 1 µM)
1 | NCI-H2009 | 0.716 | 0.677 | 0.69 | 0.53 | 0.295 | 0.457 | 0.396 | 0.357 | 0.291 | 0.23 | 1.04 | 0.897 | 0.817 | 0.701 | 0.519 | 0.272 | 0.212 | 0.187 | 0.223 | 0.159
2 | NCI-H2023 | 0.721 | 0.281 | 0.54 | 0.515 | 0.303 | 0.405 | 0.381 | 0.321 | 0.319 | 0.218 | 0.723 | 0.532 | 0.515 | 0.551 | 0.343 | 0.536 | 0.488 | 0.351 | 0.453 | 0.246
3 | NCI-H2085 | 0.816 | 0.786 | 0.748 | 0.63 | 0.383 | 0.667 | 0.555 | 0.616 | 0.592 | 0.399 | 0.426 | 0.332 | 0.376 | 0.412 | 0.327 | 0.233 | 0.282 | 0.209 | 0.252 | 0.191
4 | NCI-H2087 | 0.365 | 0.53 | 0.602 | 0.379 | 0.188 | 0.449 |  | 0.291 | 0.229 | 0.189 | 0.175 |  | 0.137 | 0.235 | 0.203 | 0.784 |  | 0.658 | 0.385 | 0.328
5 | NCI-H2126 | 0.718 | 0.381 | 0.535 | 0.545 | 0.325 | 0.494 | 0.418 | 0.381 | 0.413 | 0.392 | 0.869 | 0.79 | 0.564 | 0.535 | 0.369 | 0.574 | 0.449 | 0.355 | 0.387 | 0.27
6 | NCI-H2170 | 0.841 | 0.515 | 0.694 | 0.675 | 0.447 | 0.418 | 0.352 | 0.351 | 0.34 | 0.304 | 0.536 | 0.536 | 0.558 | 0.707 | 0.536 | 0.488 | 0.515 | 0.549 | 0.534 | 0.521
7 | NCI-H2228 | 0.566 | 0.673 | 0.649 | 0.717 | 0.398 | 0.322 | 0.287 | 0.293 | 0.258 | 0.307 | 0.173 | 0.182 | 0.149 | 0.126 | 0.098 | 0.546 | 0.449 | 0.418 | 0.409 | 0.408
8 | NCI-H2342 | 0.713 | 0.63 | 0.895 | 0.638 | 0.585 | 0.569 | 0.555 | 0.477 | 0.564 | 0.441 | 0.719 | 0.757 | 0.575 | 0.718 | 0.549 | 0.324 | 0.302 | 0.306 | 0.301 | 0.314
